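Compound exposure: 48 hours, 5 concentrations, 96-well plates. The concentration for 50% growth inhibition is given as GI50. Definition used: TGI = concentration required for complete inhibition of growth.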
How the values were obtained:
Assay in all cases: NCI anticancer screen, dose series, 48 h
A498 renal = test system: A498 renal
A549 NSCLC = test system: A549 NSCLC
ACHN renal = test system: ACHN renal
BT-549 breast = test system: BT-549 breast
CAKI-1 renal = test system: CAKI-1 renal
CCRF-CEM leukemia = test system: CCRF-CEM leukemia
COLO 205 colon = test system: COLO 205 colon
DU-145 prostate = test system: DU-145 prostate
EKVX NSCLC = test system: EKVX NSCLC
HCC-2998 colon = test system: HCC-2998 colon
HCT-116 colon = test system: HCT-116 colon
HOP-62 NSCLC = test system: HOP-62 NSCLC
HOP-92 NSCLC = test system: HOP-92 NSCLC
HS 578T breast = test system: HS 578T breast
HT29 colon = test system: HT29 colon
K-562 leukemia = test system: K-562 leukemia
KM12 colon = test system: KM12 colon
LOX IMVI melanoma = test system: LOX IMVI melanoma
M14 melanoma = test system: M14 melanoma
MALME-3M melanoma = test system: MALME-3M melanoma
MCF7 breast = test system: MCF7 breast
MDA-MB-231 breast = test system: MDA-MB-231 breast
MDA-MB-435 = test system: MDA-MB-435
MOLT-4 leukemia = test system: MOLT-4 leukemia
NCI-H226 lung = test system: NCI-H226 lung
NCI-H23 lung = test system: NCI-H23 lung
NCI-H460 lung = test system: NCI-H460 lung
NCI-H522 lung = test system: NCI-H522 lung
NCI/ADR-RES ovarian = test system: NCI/ADR-RES ovarian
OVCAR-3 ovarian = test system: OVCAR-3 ovarian
OVCAR-4 ovarian = test system: OVCAR-4 ovarian
OVCAR-5 ovarian = test system: OVCAR-5 ovarian
OVCAR-8 ovarian = test system: OVCAR-8 ovarian
PC-3 prostate = test system: PC-3 prostate
RPMI-8226 leukemia = test system: RPMI-8226 leukemia
RXF 393 renal = test system: RXF 393 renal
SF-268 CNS = test system: SF-268 CNS
SF-295 CNS = test system: SF-295 CNS
SF-539 CNS = test system: SF-539 CNS
SK-MEL-2 melanoma = test system: SK-MEL-2 melanoma
SK-MEL-28 melanoma = test system: SK-MEL-28 melanoma
SK-MEL-5 melanoma = test system: SK-MEL-5 melanoma
SK-OV-3 ovarian = test system: SK-OV-3 ovarian
SN12C renal = test system: SN12C renal
SNB-19 CNS = test system: SNB-19 CNS
SNB-75 CNS = test system: SNB-75 CNS
SW-620 colon = test system: SW-620 colon
T-47D breast = test system: T-47D breast
TK-10 renal = test system: TK-10 renal
U251 CNS = test system: U251 CNS
UACC-257 melanoma = test system: UACC-257 melanoma
UACC-62 melanoma = test system: UACC-62 melanoma
UO-31 renal = test system: UO-31 renal

## CC[C@H](Nc1nc(C)nc(N)c1C#N)c1nc2cccc(NCc3ccc(C(=O)NO)cc3)c2c(=O)n1-c1ccccc1
A498 renal
  GI50: 1.44 µM
  TGI: 2.93 µM
A549 NSCLC
  GI50: 1.92 µM
  TGI: 4.2 µM
ACHN renal
  GI50: 1.63 µM
  TGI: 3.69 µM
BT-549 breast
  GI50: 1.93 µM
  TGI: 4.56 µM
CAKI-1 renal
  GI50: 1.76 µM
  TGI: 3.68 µM
CCRF-CEM leukemia
  GI50: 0.551 µM
  TGI: 9.21 µM
COLO 205 colon
  GI50: 1.74 µM
  TGI: 3.8 µM
DU-145 prostate
  GI50: 2.01 µM
  TGI: 4.89 µM
EKVX NSCLC
  GI50: 1.56 µM
  TGI: 3.21 µM
HCC-2998 colon
  GI50: 1.67 µM
  TGI: 3.28 µM
HCT-116 colon
  GI50: 1.01 µM
  TGI: 2.5 µM
HOP-62 NSCLC
  GI50: 1.49 µM
  TGI: 3.09 µM
HOP-92 NSCLC
  GI50: 1.38 µM
  TGI: 3.07 µM
HS 578T breast
  GI50: 2.45 µM
  TGI: 8.36 µM
HT29 colon
  GI50: 1.76 µM
  TGI: 4.45 µM
K-562 leukemia
  GI50: 2.2 µM
  TGI: > 100 µM
KM12 colon
  GI50: 1.81 µM
  TGI: 3.45 µM
LOX IMVI melanoma
  GI50: 1.65 µM
  TGI: 3.04 µM
M14 melanoma
  GI50: 2.28 µM
  TGI: 5.85 µM
MALME-3M melanoma
  GI50: 1.48 µM
  TGI: 4.05 µM
MCF7 breast
  GI50: 2.07 µM
  TGI: 5.89 µM
MDA-MB-231 breast
  GI50: 1.4 µM
  TGI: 3.36 µM
MDA-MB-435
  GI50: 1.93 µM
  TGI: 3.74 µM
MOLT-4 leukemia
  GI50: 1.36 µM
  TGI: 5.82 µM
NCI-H226 lung
  GI50: 1.72 µM
  TGI: 4.44 µM
NCI-H23 lung
  GI50: 1.83 µM
  TGI: 4.05 µM
NCI-H460 lung
  GI50: 1.79 µM
  TGI: 3.78 µM
NCI-H522 lung
  GI50: 1.54 µM
  TGI: 3.65 µM
NCI/ADR-RES ovarian
  GI50: 1.99 µM
  TGI: 4.69 µM
OVCAR-3 ovarian
  GI50: 1.48 µM
  TGI: 2.96 µM
OVCAR-4 ovarian
  GI50: 2.74 µM
  TGI: 14.6 µM
OVCAR-5 ovarian
  GI50: 1.51 µM
  TGI: 3.32 µM
OVCAR-8 ovarian
  GI50: 1.55 µM
  TGI: 3.71 µM
PC-3 prostate
  GI50: 1.47 µM
  TGI: 4.04 µM
RPMI-8226 leukemia
  GI50: 2.03 µM
  TGI: 5.26 µM
RXF 393 renal
  GI50: 0.866 µM
  TGI: 2.18 µM
SF-268 CNS
  GI50: 1.63 µM
  TGI: 3.53 µM
SF-295 CNS
  GI50: 1.66 µM
  TGI: 3.14 µM
SF-539 CNS
  GI50: 1.59 µM
  TGI: 3.02 µM
SK-MEL-2 melanoma
  GI50: 2.07 µM
  TGI: 5.51 µM
SK-MEL-28 melanoma
  GI50: 1.6 µM
  TGI: 3.28 µM
SK-MEL-5 melanoma
  GI50: 1.84 µM
  TGI: 3.47 µM
SK-OV-3 ovarian
  GI50: 1.65 µM
  TGI: 3.13 µM
SN12C renal
  GI50: 1.65 µM
  TGI: 3.92 µM
SNB-19 CNS
  GI50: 1.63 µM
  TGI: 3.97 µM
SNB-75 CNS
  GI50: 1.73 µM
  TGI: 7.27 µM
SW-620 colon
  GI50: 1.74 µM
  TGI: 4.47 µM
T-47D breast
  GI50: 1.86 µM
  TGI: 7.06 µM
TK-10 renal
  GI50: 2.43 µM
  TGI: 7.86 µM
U251 CNS
  GI50: 1.48 µM
  TGI: 2.97 µM
UACC-257 melanoma
  GI50: 1.83 µM
  TGI: 4.16 µM
UACC-62 melanoma
  GI50: 1.55 µM
  TGI: 3.17 µM
UO-31 renal
  GI50: 1.21 µM
  TGI: 2.47 µM
